Reference: paper PMC4574934, “Gliadin Induces Neutrophil Migration via Engagement of the Formyl Peptide Receptor, FPR1” (PLoS ONE, 2015)

Test system: human neutrophils
Test: EZ-TAXIScan chemotaxis assay, human neutrophils
Format: cell-based
Set-up: key to Chemotactic response: moderate (++) response; stronger chemotactic response (+++)
Details: for Chemotactic response / Chemotaxis Index (CI) / Speed: Table 2, peptide 20 ng/mL, 1-3 experiments; for Chemotaxis Index (CI), Control / Speed, Control: no cyclosporine H
Description: Heparinized venous blood was centrifuged over a Ficoll-Paque PLUS gradient (d = 1.077 g/ml, GE Healthcare, Boston, MA). The sedimented granulocyte/erythrocyte fraction was collected, and erythrocytes were lysed with cold lysis buffer (155 mM NH4Cl, 10 mM KHCO3, 0.1 mM EDTA). Cells were resuspended in HBSS without Ca^2+/Mg^2+ (Thermo Scientific, Tewksbury, MA), and viability and purity were assessed as described above. Viability of neutrophils was >95%, purity was 98–99%.
Neutrophils were counted and applied in the EZ-TAXIScan chemotaxis assay. […] The EZ-TAXIScan chamber (Effector Cell Institute, Tokyo) was assembled as described by the manufacturer. Cell migration was recorded every 15 seconds for 30 minutes at 37°C in a humidified environmental chamber. Coverslips and chips used in the chamber were coated with 1% BSA at room temperature for 1 hour. All glass coverslips were ultrasonicated and washed before use. Cell migration analysis was conducted with MATLAB software. Cell tracks were subsequently used to compute the chemotaxis index (CI) and speed for each tracked cell at each time step, as well as the average CI and average speed for each experiment.

[1] = Table 3, in the presence of cyclosporine H (FPR1 inhibitor), 2-3 experiments
[2] = human neutrophils pretreated with cyclosporine H
[3] = Table 1, neutrophils pretreated with cyclosporine H (FPR1 inhibitor), 5 experiments

| Compound | Chemotactic response | Chemotaxis Index (CI) | Speed [μm/minute] | other results |
| --- | --- | --- | --- | --- |
| QQHNIAHGRSQVLQQSTYQL [alpha-gliadin synthetic library peptide] | +++ | 0.28 ± 0.01 | 10.17 ± 1.45 | Chemotaxis Index (CI), Cyclosporine H [1]: 0.05 ± 0.02; Speed, Cyclosporine H [1]: 0.48 ± 0.19 μm/minute; Chemotaxis Index (CI), Control (Table 3, 2-3 experiments): 0.27 ± 0.02; Speed, Control (Table 3, 2-3 experiments): 6.65 ± 0.33 μm/minute |
| SSQVSFQQPLQQYPLGQGSF [alpha-gliadin synthetic library peptide] | ++ | 0.19 | 7.65 |  |
| cyclosporine H [reference compound] |  |  |  | effect on PT-gliadin-induced chemotaxis [2]: completely abrogated; effect on fMLP-mediated neutrophil chemotaxis [2]: abolished; effect on leukotriene B4 (LTB4)-mediated chemotaxis [2]: remained unaffected |
| PQQPISQQQQQQQQQQQQQQ [alpha-gliadin synthetic library peptide] | ++ | 0.29 | 7.62 |  |
| GSVQPQQLPQFEEIRNLALQ [alpha-gliadin synthetic library peptide] | +++ | 0.34 ± 0.01 | 8.10 ± 0.18 | Chemotaxis Index (CI), Cyclosporine H [1]: 0.02 ± 0.01; Speed, Cyclosporine H [1]: 0.30 ± 0.06 μm/minute; Chemotaxis Index (CI), Control (Table 3, 2-3 experiments): 0.33 ± 0.07; Speed, Control (Table 3, 2-3 experiments): 7.90 ± 0.87 μm/minute |
| LQELCCQHLWQIPEQSQCQA [alpha-gliadin synthetic library peptide] | ++ | 0.18 | 8.85 |  |
| PQNPSQQHPQEQVPLVQQQQ [alpha-gliadin synthetic library peptide] | ++ | 0.23 | 6.73 |  |
| QVLQQSTYQLLQELCCQHLW [alpha-gliadin synthetic library peptide] | ++ | 0.33 | 7.49 |  |
| CCCCC/C=C\C[C@@H](O)/C=C/C=C/C=C\[C@@H](O)CCCC(=O)O [LTB4, leukotriene B4, reference compound] |  |  |  | Chemotaxis Index (CI), Cyclosporine H [3]: 0.49 ± 0.01; Speed, Cyclosporine H [3]: 9.23 ± 0.07 μm/minute; Chemotaxis Index (CI), Control (Table 1, 5 experiments): 0.51 ± 0.01; Speed, Control (Table 1, 5 experiments): 9.68 ± 0.30 μm/minute |
| MVRVPVPQLQPQNPSQQHPQ [alpha-gliadin synthetic library peptide] | ++ | 0.30 ± 0.01 | 6.68 ± 1.92 | Chemotaxis Index (CI), Cyclosporine H [1]: 0.03 ± 0.01; Speed, Cyclosporine H [1]: 0.45 ± 0.11 μm/minute; Chemotaxis Index (CI), Control (Table 3, 2-3 experiments): 0.28 ± 0.03; Speed, Control (Table 3, 2-3 experiments): 7.50 ± 1.95 μm/minute |
| PFPQPQLPYLQPQPFRPQQP [alpha-gliadin synthetic library peptide] | ++ | 0.21 ± 0.01 | 9.94 ± 0.09 |  |
| QIPEQSQCQAIHNVVHAIIL [alpha-gliadin synthetic library peptide] | +++ | 0.33 | 8.64 |  |
| QQYPLGQGSFRPSQQNPLAQ [alpha-gliadin synthetic library peptide] | ++ | 0.21 | 8.08 |  |
| PPYCTIVPFGIFGTNYR [alpha-gliadin synthetic library peptide] | ++ | 0.29 ± 0.01 | 8.55 ± 0.11 |  |
